Legend:
[1] = compound: T1, C[C@H]1CNCCN1c1nccc(-c2noc3c2CCC[C@@]32CCCc3sc(N)c(C#N)c32)n1 [BI-2493]; details: 5 days
Method: (§1)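 PRISM pooled barcoded cancer cell line viability screen (Broad Institute) with BI-2493 at 8 doses in threefold dilutions from 0.00457 to 10 µmol/L, 5-day treatment; curves fitted per cell line. IC50 is undefined (placeholder) for resistant lines. AUC is capped at 1, and sensitivity is reported as 1 − AUC.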

[2] = compound: T1, BI-2493; assay: 1 - AUC of viability dose-response curve (sensitivity) (fraction); higher = more sensitive; details: 5 days
Method: as §1

Test System: HSC3_UPPER_AERODIGESTIVE_TRACT
- IC50 of cell viability [1]: 5.44 µM
- 1 - AUC of viability dose-response curve [2]: 0.138

Test System: OV56_OVARY
- IC50 of cell viability [1]: > 10 µM
- 1 - AUC of viability dose-response curve [2]: 0.0641

Test System: RMSYM_SOFT_TISSUE
- IC50 of cell viability [1]: 6.04 µM
- 1 - AUC of viability dose-response curve [2]: 0.119

Test System: NCIH446_LUNG
- IC50 of cell viability [1]: 4.06 µM
- 1 - AUC of viability dose-response curve [2]: 0.216

Test System: CAL62_THYROID
- IC50 of cell viability [1]: > 10 µM
- 1 - AUC of viability dose-response curve [2]: 0.0045

Test System: HOS_BONE
- IC50 of cell viability [1]: 7.39 µM
- 1 - AUC of viability dose-response curve [2]: 0.0734

Test System: NUDHL1_HAEMATOPOIETIC_AND_LYMPHOID_TISSUE
- IC50 of cell viability [1]: 0.306 µM
- 1 - AUC of viability dose-response curve [2]: 0.441

Test System: UW228_CENTRAL_NERVOUS_SYSTEM
- IC50 of cell viability [1]: 4.79 µM
- 1 - AUC of viability dose-response curve [2]: 0.0946

Test System: TE14_OESOPHAGUS
- IC50 of cell viability [1]: 9.66 µM
- 1 - AUC of viability dose-response curve [2]: 0.00721

Test System: KNS81_CENTRAL_NERVOUS_SYSTEM
- IC50 of cell viability [1]: 6.64 µM
- 1 - AUC of viability dose-response curve [2]: 0.0832

Test System: BFTC909_KIDNEY
- IC50 of cell viability [1]: 6.33 µM
- 1 - AUC of viability dose-response curve [2]: 0.0855

Test System: SNU46_UPPER_AERODIGESTIVE_TRACT
- IC50 of cell viability [1]: 5.4 µM
- 1 - AUC of viability dose-response curve [2]: 0.192

Test System: RO82W1_THYROID
- IC50 of cell viability [1]: 5.35 µM
- 1 - AUC of viability dose-response curve [2]: 0.123

Test System: GRANTA519_HAEMATOPOIETIC_AND_LYMPHOID_TISSUE
- IC50 of cell viability [1]: > 10 µM
- 1 - AUC of viability dose-response curve [2]: 0.0332

Test System: NCIH2004RT_SOFT_TISSUE
- IC50 of cell viability [1]: > 10 µM
- 1 - AUC of viability dose-response curve [2]: 0.0737

Test System: CCFSTTG1_CENTRAL_NERVOUS_SYSTEM
- IC50 of cell viability [1]: > 10 µM
- 1 - AUC of viability dose-response curve [2]: 0.00118

Test System: TT_OESOPHAGUS
- IC50 of cell viability [1]: 5.9 µM
- 1 - AUC of viability dose-response curve [2]: 0.191

Test System: MPP89_PLEURA
- IC50 of cell viability [1]: 9.24 µM
- 1 - AUC of viability dose-response curve [2]: 0.0335

Test System: LN229_CENTRAL_NERVOUS_SYSTEM
- IC50 of cell viability [1]: 8.48 µM
- 1 - AUC of viability dose-response curve [2]: 0.0706

Test System: CL34_LARGE_INTESTINE
- IC50 of cell viability [1]: > 10 µM
- 1 - AUC of viability dose-response curve [2]: 0.00172

Test System: AU565_BREAST
- IC50 of cell viability [1]: 6.01 µM
- 1 - AUC of viability dose-response curve [2]: 0.0935

Test System: SNU466_CENTRAL_NERVOUS_SYSTEM
- IC50 of cell viability [1]: 2.75 µM
- 1 - AUC of viability dose-response curve [2]: 0.218

Test System: BL2_HAEMATOPOIETIC_AND_LYMPHOID_TISSUE
- IC50 of cell viability [1]: 4.45 µM
- 1 - AUC of viability dose-response curve [2]: 0.183

Test System: 921_UVEA
- IC50 of cell viability [1]: 4.34 µM
- 1 - AUC of viability dose-response curve [2]: 0.13

Test System: PANC1005_PANCREAS
- IC50 of cell viability [1]: 3.98 µM
- 1 - AUC of viability dose-response curve [2]: 0.121

Test System: ECGI10_OESOPHAGUS
- IC50 of cell viability [1]: 4.75 µM
- 1 - AUC of viability dose-response curve [2]: 0.15

Test System: IGR37_SKIN
- IC50 of cell viability [1]: 8.82 µM
- 1 - AUC of viability dose-response curve [2]: 0.111

Test System: RBE_BILIARY_TRACT
- IC50 of cell viability [1]: 2.47 µM
- 1 - AUC of viability dose-response curve [2]: 0.243

Test System: TE9_OESOPHAGUS
- IC50 of cell viability [1]: 5.83 µM
- 1 - AUC of viability dose-response curve [2]: 0.107

Test System: HT1376_URINARY_TRACT
- IC50 of cell viability [1]: 5.68 µM
- 1 - AUC of viability dose-response curve [2]: 0.175

Test System: YAPC_PANCREAS
- IC50 of cell viability [1]: 2.97 µM
- 1 - AUC of viability dose-response curve [2]: 0.287

Test System: RMUGS_OVARY
- IC50 of cell viability [1]: 5.26 µM
- 1 - AUC of viability dose-response curve [2]: 0.122

Test System: JHH7_LIVER
- IC50 of cell viability [1]: 1.67 µM
- 1 - AUC of viability dose-response curve [2]: 0.27

Test System: 2313287_STOMACH
- IC50 of cell viability [1]: 1.34 µM
- 1 - AUC of viability dose-response curve [2]: 0.233

Test System: JMSU1_URINARY_TRACT
- IC50 of cell viability [1]: > 10 µM
- 1 - AUC of viability dose-response curve [2]: 0.00212

Test System: JHH4_LIVER
- IC50 of cell viability [1]: 6.96 µM
- 1 - AUC of viability dose-response curve [2]: 0.071

Test System: BICR22_UPPER_AERODIGESTIVE_TRACT
- IC50 of cell viability [1]: 4.66 µM
- 1 - AUC of viability dose-response curve [2]: 0.137

Test System: SIMA_AUTONOMIC_GANGLIA
- IC50 of cell viability [1]: > 10 µM
- 1 - AUC of viability dose-response curve [2]: 0.159

Test System: COLO792_SKIN
- IC50 of cell viability [1]: 7.62 µM
- 1 - AUC of viability dose-response curve [2]: 0.221

Test System: NCIH1650_LUNG
- IC50 of cell viability [1]: 8.06 µM
- 1 - AUC of viability dose-response curve [2]: 0.042

Test System: ONS76_CENTRAL_NERVOUS_SYSTEM
- IC50 of cell viability [1]: 5.21 µM
- 1 - AUC of viability dose-response curve [2]: 0.133

Test System: HT1080_SOFT_TISSUE
- IC50 of cell viability [1]: 3.19 µM
- 1 - AUC of viability dose-response curve [2]: 0.209

Test System: UMUC7_URINARY_TRACT
- IC50 of cell viability [1]: > 10 µM
- 1 - AUC of viability dose-response curve [2]: 0.14

Test System: PL21_HAEMATOPOIETIC_AND_LYMPHOID_TISSUE
- IC50 of cell viability [1]: 0.451 µM
- 1 - AUC of viability dose-response curve [2]: 0.358

Test System: SNU245_BILIARY_TRACT
- IC50 of cell viability [1]: 0.731 µM
- 1 - AUC of viability dose-response curve [2]: 0.381

Test System: NCIH508_LARGE_INTESTINE
- IC50 of cell viability [1]: > 10 µM
- 1 - AUC of viability dose-response curve [2]: 0.088

Test System: L363_HAEMATOPOIETIC_AND_LYMPHOID_TISSUE
- IC50 of cell viability [1]: 7.78 µM
- 1 - AUC of viability dose-response curve [2]: 0.041

Test System: U937_HAEMATOPOIETIC_AND_LYMPHOID_TISSUE
- IC50 of cell viability [1]: 3.77 µM
- 1 - AUC of viability dose-response curve [2]: 0.17

Test System: MKN7_STOMACH
- IC50 of cell viability [1]: 8.55 µM
- 1 - AUC of viability dose-response curve [2]: 0.161

Test System: NCIH1048_LUNG
- IC50 of cell viability [1]: 6.78 µM
- 1 - AUC of viability dose-response curve [2]: 0.0696

Test System: RDES_BONE
- IC50 of cell viability [1]: 9.6 µM
- 1 - AUC of viability dose-response curve [2]: 0.0344

Test System: IGR1_SKIN
- IC50 of cell viability [1]: 7.02 µM
- 1 - AUC of viability dose-response curve [2]: 0.0813

Test System: ICC8_BILIARY_TRACT
- IC50 of cell viability [1]: 7.67 µM
- 1 - AUC of viability dose-response curve [2]: 0.185

Test System: A2058_SKIN
- IC50 of cell viability [1]: 5.91 µM
- 1 - AUC of viability dose-response curve [2]: 0.0892

Test System: NCCIT_TESTIS
- IC50 of cell viability [1]: 0.878 µM
- 1 - AUC of viability dose-response curve [2]: 0.192

Test System: OC314_OVARY
- IC50 of cell viability [1]: 5.96 µM
- 1 - AUC of viability dose-response curve [2]: 0.113

Test System: ACHN_KIDNEY
- IC50 of cell viability [1]: 6.46 µM
- 1 - AUC of viability dose-response curve [2]: 0.133

Test System: 42MGBA_CENTRAL_NERVOUS_SYSTEM
- IC50 of cell viability [1]: > 10 µM
- 1 - AUC of viability dose-response curve [2]: 0.073

Test System: SNU1_STOMACH
- IC50 of cell viability [1]: 5.53 µM
- 1 - AUC of viability dose-response curve [2]: 0.102

Test System: CCSW1_BILIARY_TRACT
- IC50 of cell viability [1]: 5.45 µM
- 1 - AUC of viability dose-response curve [2]: 0.14

Test System: T3M5_THYROID
- IC50 of cell viability [1]: 4.56 µM
- 1 - AUC of viability dose-response curve [2]: 0.162

Test System: LS_AUTONOMIC_GANGLIA
- IC50 of cell viability [1]: 3.67 µM
- 1 - AUC of viability dose-response curve [2]: 0.125

Test System: SNU719_STOMACH
- IC50 of cell viability [1]: 9.46 µM
- 1 - AUC of viability dose-response curve [2]: 0.00913

Test System: MEL290_UVEA
- IC50 of cell viability [1]: > 10 µM
- 1 - AUC of viability dose-response curve [2]: 0.105

Test System: JHOS2_OVARY
- IC50 of cell viability [1]: 9.64 µM
- 1 - AUC of viability dose-response curve [2]: 0.0182

Test System: YD38_UPPER_AERODIGESTIVE_TRACT
- IC50 of cell viability [1]: 6.6 µM
- 1 - AUC of viability dose-response curve [2]: 0.088

Test System: SKNSH_AUTONOMIC_GANGLIA
- IC50 of cell viability [1]: > 10 µM
- 1 - AUC of viability dose-response curve [2]: 0.25

Test System: BONNA12_HAEMATOPOIETIC_AND_LYMPHOID_TISSUE
- IC50 of cell viability [1]: > 10 µM
- 1 - AUC of viability dose-response curve [2]: 0.117

Test System: CFPAC1_PANCREAS
- IC50 of cell viability [1]: 4.12 µM
- 1 - AUC of viability dose-response curve [2]: 0.15

Test System: TTC549_SOFT_TISSUE
- IC50 of cell viability [1]: 5.34 µM
- 1 - AUC of viability dose-response curve [2]: 0.113

Test System: BICR78_UPPER_AERODIGESTIVE_TRACT
- IC50 of cell viability [1]: 5.51 µM
- 1 - AUC of viability dose-response curve [2]: 0.173

Test System: ICC10_BILIARY_TRACT
- IC50 of cell viability [1]: 9.23 µM
- 1 - AUC of viability dose-response curve [2]: 0.0142

Test System: COV434_OVARY
- IC50 of cell viability [1]: 3.6 µM
- 1 - AUC of viability dose-response curve [2]: 0.191

Test System: SUM159PT_BREAST
- IC50 of cell viability [1]: 7.31 µM
- 1 - AUC of viability dose-response curve [2]: 0.064

Test System: UPCISCC072_UPPER_AERODIGESTIVE_TRACT
- IC50 of cell viability [1]: 8.57 µM
- 1 - AUC of viability dose-response curve [2]: 0.0294

Reference: the supplement of paper PMC11962398
